Results as given in the supplement of paper PMC10307832.

Tests used:
Assay in all cases: relative viability (nuclei count vs DMSO), 5 days (fraction); higher = more cells survive
[1] = compound: CN(NC(=O)CC(=O)NN(C)C(=S)c1ccccc1)C(=S)c1ccccc1 [Elesclomol] + CC(C)C[C@H](NC(=O)[C@H](Cc1ccccc1)NC(=O)c1cnccn1)B(O)O [Bortezomib] (partner 0.002 µM)
How it was run: (§1)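 Lung cancer cell lines in 1536-well plates were dosed by pin tool the day after seeding, either with one drug alone or with a fixed anchor-drug dose plus five library-drug doses (not always all listed) in √10 steps. After 5 days, cells were fixed and their nuclei stained in one step (final 0.05% Triton X-100, 1% formaldehyde, 1 ug/ml Hoechst), then counted on 4× images. Relative viability is the nuclei count in treated wells divided by that in vehicle wells. Values are medians of duplicate plates.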

[2] = compound: CN(NC(=O)CC(=O)NN(C)C(=S)c1ccccc1)C(=S)c1ccccc1 [Elesclomol] + CS(=O)(=O)N1CCN(Cc2cc3nc(-c4cccc5[nH]ncc45)nc(N4CCOCC4)c3s2)CC1 [Pictilisib] (partner 1 µM)
How it was run: as §1

[3] = compound: CN(NC(=O)CC(=O)NN(C)C(=S)c1ccccc1)C(=S)c1ccccc1 [Elesclomol] + C[C@@H](Oc1cc(-c2cnn(C3CCNCC3)c2)cnc1N)c1c(Cl)ccc(F)c1Cl [Crizotinib] (partner 1 µM)
How it was run: as §1

[4] = compound: CN(NC(=O)CC(=O)NN(C)C(=S)c1ccccc1)C(=S)c1ccccc1 [Elesclomol] + C[C@]1(O)C[C@@H](c2nc(-c3ccc4ccc(-c5ccccc5)nc4c3)c3c(N)nccn32)C1 [Linsitinib] (partner 1 µM)
How it was run: as §1

[5] = compound: CN(NC(=O)CC(=O)NN(C)C(=S)c1ccccc1)C(=S)c1ccccc1 [Elesclomol] + Cc1nc(NC(=O)N2CCC[C@H]2C(N)=O)sc1-c1ccnc(C(C)(C)C(F)(F)F)c1 [Alpelisib] (partner 2 µM)
How it was run: as §1

| Cell Line | relative viability ([1]; first compound 0.003162 µM) | relative viability ([1]; first compound 0.01 µM) | relative viability ([1]; first compound 0.03162 µM) | relative viability ([1]; first compound 0.1 µM) | relative viability ([2]; first compound 0.003162 µM) | relative viability ([2]; first compound 0.01 µM) | relative viability ([2]; first compound 0.03162 µM) | relative viability ([2]; first compound 0.1 µM) | relative viability ([3]; first compound 0.003162 µM) | relative viability ([3]; first compound 0.01 µM) | relative viability ([3]; first compound 0.03162 µM) | relative viability ([3]; first compound 0.1 µM) | relative viability ([4]; first compound 0.003162 µM) | relative viability ([4]; first compound 0.01 µM) | relative viability ([4]; first compound 0.03162 µM) | relative viability ([4]; first compound 0.1 µM) | relative viability ([5]; first compound 0.003162 µM) | relative viability ([5]; first compound 0.01 µM) | relative viability ([5]; first compound 0.03162 µM) | relative viability ([5]; first compound 0.1 µM) |
| --- | --- | --- | --- | --- | --- | --- | --- | --- | --- | --- | --- | --- | --- | --- | --- | --- | --- | --- | --- | --- |
| NCI-H2126 | 1.11 | 1.08 | 1.11 | 1.17 | 0.501 | 0.462 | 0.494 | 0.495 | 1.02 | 1.05 | 1.03 | 1.02 | 0.665 | 0.699 | 0.731 | 0.65 | 0.719 | 0.713 | 0.717 | 0.739 |
| NCI-H2228 | 0.926 | 0.893 | 0.422 | 0.0364 | 0.395 | 0.352 | 0.132 | 0.0486 | 0.381 | 0.312 | 0.143 | 0.0592 | 0.694 | 0.541 | 0.365 | 0.0338 | 0.569 | 0.5 | 0.198 | 0.0389 |
| NCI-H2347 | 0.929 | 0.765 | 0.891 | 0.544 | 0.543 | 0.689 | 0.629 | 0.396 | 0.626 | 0.503 | 0.416 | 0.433 | 0.967 | 0.88 | 0.992 | 0.629 | 1.04 | 0.928 | 0.955 | 0.513 |
| NCI-H2405 | 0.959 | 0.842 | 0.515 | 0.458 | 0.472 | 0.249 | 0.228 | 0.236 | 0.785 | 0.565 | 0.306 | 0.307 | 0.899 | 0.315 | 0.26 | 0.27 | 0.783 | 0.312 | 0.223 | 0.224 |
| NCI-H3122 | 1.05 | 0.994 | 0.957 | 0.409 | 0.567 | 0.594 | 0.594 | 0.304 | 0.253 | 0.329 | 0.296 | 0.217 | 1.04 | 1.07 | 0.956 | 0.228 | 0.706 | 0.759 | 0.758 | 0.159 |
